Data from BindingDB's records for doi:10.1016/j.chembiol.2005.07.009 (University of Dundee, 2005).

Assays:
[1] = target: cAMP-specific 3',5'-cyclic phosphodiesterase 4A (Homo sapiens, UniProt P27815); assay: PDE 4A Assay; details: pH 7.5; 30 °C
Protocol: Phosphodiesterase 4A (PDE4A) was assayed using an Sf9-expressed GST-fusion, and activity was monitored by hydrolysis of [3H]cAMP to [3H]AMP using the PDE-SPA kit from Amersham Pharmacia Biotech.

[2] = target: Endochitinase B1 [T138A] (Aspergillus fumigatus, UniProt Q873X9, T138A); assay: Enzyme Inhibition Assay
[3] = target: Endochitinase B1 [M243A] (Aspergillus fumigatus, UniProt Q873X9, M243A); assay: Enzyme Inhibition Assay
[4] = target: Endochitinase B1 [D246A] (Aspergillus fumigatus, UniProt Q873X9, D246A); assay: Enzyme Inhibition Assay
[5] = target: Endochitinase B1 [R301K] (Aspergillus fumigatus, UniProt Q873X9, R301K); assay: Enzyme Inhibition Assay
[6] = target: Endochitinase B1 [D175A] (Aspergillus fumigatus, UniProt Q873X9, D175A); assay: Enzyme Inhibition Assay
[7] = target: Endochitinase B1 [A217G] (Aspergillus fumigatus, UniProt Q873X9, A217G); assay: Enzyme Inhibition Assay
[8] = target: Endochitinase B1 [E177A] (Aspergillus fumigatus, UniProt Q873X9, E177A); assay: Enzyme Inhibition Assay
[9] = target: Endochitinase B1 [E322A] (Aspergillus fumigatus, UniProt Q873X9, E322A); assay: Enzyme Inhibition Assay
[10] = target: Endochitinase B1 [Y245F] (Aspergillus fumigatus, UniProt Q873X9, Y245F); assay: Enzyme Inhibition Assay

Sequence of cAMP-specific 3',5'-cyclic phosphodiesterase 4A (P27815 whole entry, the tested form may be a part): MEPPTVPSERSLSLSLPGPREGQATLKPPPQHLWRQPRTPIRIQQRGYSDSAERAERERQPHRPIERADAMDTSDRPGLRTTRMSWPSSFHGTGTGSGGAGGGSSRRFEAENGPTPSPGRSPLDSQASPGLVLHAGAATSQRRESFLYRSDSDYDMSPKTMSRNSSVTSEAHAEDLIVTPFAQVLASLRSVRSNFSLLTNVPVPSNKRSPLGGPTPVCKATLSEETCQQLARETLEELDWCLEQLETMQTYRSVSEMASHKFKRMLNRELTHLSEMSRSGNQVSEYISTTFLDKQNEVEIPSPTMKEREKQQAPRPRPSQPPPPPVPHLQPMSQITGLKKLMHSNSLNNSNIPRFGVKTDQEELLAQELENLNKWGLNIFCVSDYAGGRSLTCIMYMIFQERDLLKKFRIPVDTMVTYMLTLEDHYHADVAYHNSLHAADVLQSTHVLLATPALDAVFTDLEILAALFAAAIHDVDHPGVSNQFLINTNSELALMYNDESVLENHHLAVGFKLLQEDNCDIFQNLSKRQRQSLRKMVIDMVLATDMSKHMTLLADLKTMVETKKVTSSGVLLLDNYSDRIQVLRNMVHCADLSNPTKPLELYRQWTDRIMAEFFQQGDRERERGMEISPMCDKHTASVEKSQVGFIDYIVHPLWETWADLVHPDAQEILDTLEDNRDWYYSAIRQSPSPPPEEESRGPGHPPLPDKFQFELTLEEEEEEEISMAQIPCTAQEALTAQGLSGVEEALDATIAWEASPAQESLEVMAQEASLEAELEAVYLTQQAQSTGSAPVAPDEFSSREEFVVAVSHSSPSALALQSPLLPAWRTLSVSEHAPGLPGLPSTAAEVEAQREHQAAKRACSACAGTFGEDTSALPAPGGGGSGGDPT

IC50 [1] [µM]	Structure (SMILES)	Kd [2] [µM]	Kd [3] [µM]	Kd [4] [µM]	Kd [5] [µM]	Kd [6] [µM]	Kd [7] [µM]	Kd [8] [µM]	Kd [9] [µM]	Kd [10] [µM]
747	Cn1c(=O)c2c(ncn2C)n(C)c1=O									
	CC(=O)CCCCn1c(=O)c2c(ncn2C)n(C)c1=O [1-(5-Oxohexyl)theobromine (pentoxifylline)]	65	18	62	17	100	77	36	45	64
